Publication PMC8602566 (Frontiers in Oncology, 2021)
Like-named read-outs stand apart in the source and are kept apart here.

Assays:
HDAC3 = HDAC3 (Homo sapiens, UniProt O15379); assay: HDACs inhibition assay, HDAC3
Protocol: (§3) The inhibition assays for HDACs were carried out according to standard protocols. […] The reaction was stopped by the addition of 45 μl of 100 mM HEPES (pH 7.5) and 0.08% sodium dodecyl sulfate (SDS). The substrate and the product were then separated electrophoretically using a LabChip 3000 system (Caliper Life Sciences, Hopkinton, MA) with blue laser excitation and green fluorescence detection.

[1] = tested on: Human umbilical vein endothelial cells HUVEC; assay: MTT cell viability assay, HUVEC; type: cell-based
Protocol: Cell viability was measured using the 3-(4,5-dimethylthiazol-2-yl)-2,5-diphenyltetrazolium bromide (MTT) assay and was expressed as a ratio to the absorbance value at 570 nm of the control cells.

[2] = Hepatic microsome stability assay, mice; type: in vitro ADME; conditions: mouse liver microsomes, NADPH, 37°C, pH 7.4
Protocol: (§1) Metabolic stability was assessed in the presence of human, mouse, and rat liver microsomes (XenoTech, Lenexa, KS, USA). All liquid dispenses and transfer steps were performed with the Freedom Evo automated liquid handler (Tecan US). Compound stock solutions were initially prepared in 100% DMSO and subsequently diluted in acetonitrile for the assay. The pH of the reactions was kept at 7.4 with potassium phosphate buffer. The reaction wells were prepared by adding microsomes to a well and allowed to warm to 37°C. Then, compound was added to each well. The reactions were […] by adding cofactor reduced nicotinamide adenine dinucleotide phosphate (NADPH) to the reaction well containing microsomes and compounds. Negative controls received buffer only. Immediately after reactions started, 0-min aliquots were promptly collected and mixed in a separate well with ice cold acetonitrile to quench the reactions. The remainder of the reaction volume was incubated at 37°C with shaking. An additional aliquot was collected at 60 min after the start of the reaction and promptly quenched with ice cold acetonitrile. Samples were vortexed and centrifuged at 3,500 rpm for 10 min. The amount of compound in the supernatant was determined by liquid chromatography–tandem mass spectrometry (LC/MS/MS) (Thermo Fischer Scientific, San Jose, CA, USA), and the percent of parent compound remaining after 60 min was calculated. Results are the mean of each reaction triplicate, normalized to the internal standard, and expressed as the percent of compound remaining after the incubation time.
(§2) Structures that are active in vitro may not be potent in vivo due to their susceptibility to metabolism in the body. We then thoroughly examined the liver microsomal metabolic stability of DMC-HA across three different species (Table 3). […] In addition, the half-life of DMC-HA in human microsome is generally two to three times longer than those in mice and rats. Collectively, the in vitro liver microsomal stability of DMC-HA is favorable, guaranteeing its further in vivo studies.

HDAC11 = HDAC11 (Homo sapiens, UniProt Q96DB2); assay: HDACs inhibition assay, HDAC11
Protocol: as §3

[3] = Hepatic microsome stability assay, rat; type: in vitro ADME; conditions: rat liver microsomes, NADPH, 37°C, pH 7.4
Protocol: as §1, §2

U87 cells [4] = assay: Cell apoptosis assay by flow cytometry (Annexin V-FITC/PI); type: cell-based, Human; conditions: 10 μM, Annexin V/PI (control 3.3%)
Protocol: For apoptosis assays, 5 × 10^5 U87 cells were seeded into six-well plates for 24 h and treated with a range of concentrations of DMC-HA for 36 h. Annexin V-FITC/PI apoptosis detection kit was used to perform the apoptotic assay following the manufacturer’s instructions (Beyotime, Jiangsu, China). After treatment, 1 × 10^6 cells were washed using 1 ml binding buffer for three times, then centrifuged at 300×g and stained with 10 μl Annexin V-FITC solution at 37°C for 15 min. Before detecting, 5 μl PI solution was added to the samples, and the apoptotic cells were detected using flow cytometry (FACSCalibur BD, BD Biosciences, San Jose, CA, USA).
To further investigate the apoptotic effect of DMC-HA on GBM, we treated U87 cells with increasing concentrations of DMC-HA. After 48 h, the morphological changes of DMC-HA-treated U87 cells were observed, such as cell shrinking, rounding, and detachment (Figure 4A). […] To further confirm whether DMC-HA could induce apoptosis in U87 cells, cells were stained with Annexin V and PI after treatment with various concentrations of DMC-HA.

[5] = Pharmacokinetic study in mice; type: in vivo, SD mice; conditions: plasma; for Tmax: 10 mg/kg
Protocol: The animal studies were approved by the Institutional Animal Care and Used Committee. The pharmacokinetic study of DMC-HA was carried out with female SD mice. The compound (2.0 mM) was suspended in DMSO (10%) and Tween 80 (10%) in PBS (80%). A single dose of 1 mg/kg was administrated by intravenous injection (n = 3 mice), followed by blood collection via retro-orbital bleeding at 0.25, 0.5, 2.0, 4.0, 8.0, 12.0, and 24 h. Whole blood samples were added to a tube containing ethylenediaminetetraacetic acid (EDTA) and centrifuged. Plasma was collected and stored at −20°C. Compound standards were prepared with pooled plasma samples. Fifty microliters of thawed plasma and standards were added into wells of Ostro Pass-Through Sample Preparation Plate (Waters) for solid phase extraction. Acetonitrile (150 μl) containing internal standard was added and mixed by pipette. Next, clear sample solution was eluted by positive pressure processor under 60 psi for 5 min. The sample solution can be used directly for LC-MS/MS analysis.
The preliminary in vivo pharmacokinetic study for DMC-HA was performed in mice. SD mice were intravenously injected with 1 mg/kg DMC-HA or orally administrated with 10 mg/kg DMC-HA. Plasma samples were collected and analyzed with LC-MS/MS.

all eight cell lines = assay: Antiproliferative activity, panel of eight cancer cell lines (summary); type: cell-based; conditions: Homo sapiens; summary over the eight cancer cell lines of Table 2; read-out: IC50 values against all eight cell lines
Protocol: Cells (5 × 10^4) were seeded into 96-well plates and exposed to vehicle (PBS) or different concentrations of compounds for 72 h. Cell viability was measured using the 3-(4,5-dimethylthiazol-2-yl)-2,5-diphenyltetrazolium bromide (MTT) assay and was expressed as a ratio to the absorbance value at 570 nm of the control cells.
As DMC-HA was identified as a potent novel inhibitor for HDACs, its antiproliferative activities on a panel of cancer cell lines and normal cells were evaluated, including four glioma cell lines, and the results are shown in Table 2. Vorinostat and curcumin were also tested as positive controls. […].

HDAC10 = HDAC10 (Homo sapiens, UniProt Q969S8); assay: HDACs inhibition assay, HDAC10
Protocol: as §3

U87 cells [6] = assay: LDH release; type: cell-based, Human; conditions: increasing concentrations, 48 h
[7] = female, SD, mouse, iv, i.v. 1 mg/kg
[8] = female, SD, mouse, po, p.o. 10 mg/kg

Chain of HDAC3 (O15379 whole entry): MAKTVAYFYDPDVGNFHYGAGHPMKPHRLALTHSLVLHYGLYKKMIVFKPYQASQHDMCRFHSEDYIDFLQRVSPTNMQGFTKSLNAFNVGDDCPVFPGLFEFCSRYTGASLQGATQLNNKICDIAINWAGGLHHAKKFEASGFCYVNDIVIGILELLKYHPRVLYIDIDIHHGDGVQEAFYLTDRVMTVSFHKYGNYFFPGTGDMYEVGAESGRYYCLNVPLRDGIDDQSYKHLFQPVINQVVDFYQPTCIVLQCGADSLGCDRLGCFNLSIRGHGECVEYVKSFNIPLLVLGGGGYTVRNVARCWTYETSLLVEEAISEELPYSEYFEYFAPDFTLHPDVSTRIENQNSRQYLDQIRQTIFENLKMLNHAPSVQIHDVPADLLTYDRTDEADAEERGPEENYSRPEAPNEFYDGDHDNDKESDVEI
Chain of HDAC3 (Q9Y618 395-489 partner limits assumed): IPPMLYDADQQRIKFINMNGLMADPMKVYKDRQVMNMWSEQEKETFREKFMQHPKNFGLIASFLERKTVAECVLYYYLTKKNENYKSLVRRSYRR
Chain of HDAC11 (Q96DB2 whole entry): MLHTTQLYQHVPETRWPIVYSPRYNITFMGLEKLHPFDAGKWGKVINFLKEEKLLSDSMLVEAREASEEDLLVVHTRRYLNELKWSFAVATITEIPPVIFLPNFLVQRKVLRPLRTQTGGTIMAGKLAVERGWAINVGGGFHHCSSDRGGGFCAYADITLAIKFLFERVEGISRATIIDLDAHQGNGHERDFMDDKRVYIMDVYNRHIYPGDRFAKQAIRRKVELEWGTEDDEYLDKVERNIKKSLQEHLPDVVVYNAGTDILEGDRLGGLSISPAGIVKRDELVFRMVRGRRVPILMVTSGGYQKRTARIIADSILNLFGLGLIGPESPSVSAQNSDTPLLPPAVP
Chain of HDAC10 (Q969S8 whole entry): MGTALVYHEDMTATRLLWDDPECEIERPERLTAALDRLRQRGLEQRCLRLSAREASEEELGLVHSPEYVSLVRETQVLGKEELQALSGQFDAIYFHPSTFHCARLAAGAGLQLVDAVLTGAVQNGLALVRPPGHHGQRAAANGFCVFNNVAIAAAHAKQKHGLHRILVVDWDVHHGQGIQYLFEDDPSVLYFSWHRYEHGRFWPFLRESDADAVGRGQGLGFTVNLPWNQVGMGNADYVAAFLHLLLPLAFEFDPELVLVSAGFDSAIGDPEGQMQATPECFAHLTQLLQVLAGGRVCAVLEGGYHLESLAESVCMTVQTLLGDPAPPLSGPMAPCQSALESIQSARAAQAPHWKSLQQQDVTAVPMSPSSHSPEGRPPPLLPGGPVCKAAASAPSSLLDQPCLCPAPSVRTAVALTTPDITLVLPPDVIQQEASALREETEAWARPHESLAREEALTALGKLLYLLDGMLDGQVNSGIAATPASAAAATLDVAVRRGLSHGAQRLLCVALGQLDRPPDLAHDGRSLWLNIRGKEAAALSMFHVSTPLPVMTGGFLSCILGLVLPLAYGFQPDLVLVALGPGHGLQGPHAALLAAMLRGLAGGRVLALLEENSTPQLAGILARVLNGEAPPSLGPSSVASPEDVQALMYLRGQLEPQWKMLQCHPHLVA

COc1cc(/C=C/C(=O)CC(=O)/C=C/c2ccc(/C=C/C(=O)NO)cc2)ccc1O [DMC-HA]
IC50 (HDAC3): 1.67 µM | IC50 ([1]; Homo sapiens, HUVEC, MTT, 72 h, normal cells, read-out: IC50 HUVEC): 27.4 ± 3.94 µM | toxicity to human umbilical vein endothelial cells (HUVECs) ([1]; in words): low toxicity | Mice Liver Microsomal Stability T1/2 [2]: 32.7 min | microsomal CLint [2]: 43.2 µL/min/mg | IC50 (HDAC11): > 10 µM | Rat Liver Microsomal Stability T1/2 [3]: 40.7 min | microsomal CLint [3]: 34.2 µL/min/mg | total apoptotic cells (U87 cells [4]): 90.0% | AUC(0-inf) [5, 7]: 0.502 µg·h/mL | AUC(0-t) [5, 7]: 0.493 µg·h/mL | clearance [5, 7]: 1.8 L/h/kg | half-life [5, 7]: 192 min | bioavailability ([5]; female, SD, mouse, oral, p.o. 10 mg/kg vs i.v. 1 mg/kg, read-out: F (oral bioavailability)): 40.2% | Tmax ([5]; female, SD, mouse, po, p.o. 10 mg/kg, read-out: Tmax): 40.2 min | Tmax ([5]; female, SD, mouse, po, p.o. 10 mg/kg, read-out: time of peak concentration (converted)): ~40 min | AUC(0-inf) [5, 8]: 2.01 µg·h/mL | AUC(0-t) [5, 8]: 1.98 µg·h/mL | Cmax [5, 8]: 1.07 µg/mL | half-life [5, 8]: 246 min | Cl ([5]; p.o. 10 mg/kg): 8.7 L/h/kg | peak concentration ([5]; p.o. 10 mg/kg): about 1.0 μg/ml | IC50 (all eight cell lines): < 5.3 µM | IC50 (HDAC10): 8.39 µM | LDH release / cell death (U87 cells [6]): induces cell death in a dose-dependent manner
